Among the test systems are HOP-62 NSCLC; T-47D breast; M14 melanoma; HS 578T breast; UACC-257 melanoma; SR leukemia.
Holding throughout (assay): inhibition of tumour cell growth, NCI panel, 48 h

Values joined by “and” are separate entries in the source; they are usually repeats but may differ in a detail not shown here. Equal values may be shown once.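 Method: 48-hour compound exposure of cells in 96-well plates, five concentrations, linear interpolation of endpoints. GI50: concentration for 50% inhibition of growth. At the TGI there is no net growth.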

With `Cn1cc(C2=C(c3cn(C)c4ccc(N)cc34)C(=O)NC2=O)c2ccccc21`, the GI50 is 9.59 µM in the experiment on HOP-62 NSCLC; 18.8 µM in the experiment with T-47D breast; 13.9 µM in the experiment on M14 melanoma; 5.3 µM in the experiment on HS 578T breast; above 25 µM in the experiment with UACC-257 melanoma; 2.05 µM with SR leukemia. The TGI in the experiment with HOP-62 NSCLC, in the experiment on T-47D breast, with M14 melanoma, with HS 578T breast, in the experiment with UACC-257 melanoma and with SR leukemia was above 25 µM in each case.
With `CC1(C)N=C(N)N=C(N)N1c1ccc(CCc2ccccc2)c(Cl)c1`, the GI50 with HOP-62 NSCLC was 0.268 µM; in the experiment with T-47D breast it was 0.698 µM; in the experiment on M14 melanoma, 0.124 µM; in the experiment with HS 578T breast, 3.7 µM; with UACC-257 melanoma, 0.392 µM; with SR leukemia, 0.0562 µM. Further, the TGI with HOP-62 NSCLC came to 12.4 µM; with T-47D breast it was 13 µM; in the experiment on M14 melanoma it was 13.7 µM; with HS 578T breast it was 27.2 µM; in the experiment on UACC-257 melanoma, 13.1 µM; in the experiment on SR leukemia it was 18.7 µM.
On to `CNC(=O)Nc1ccc(-c2nc(N3CCOCC3)nc3c2cnn3C2CCOCC2)cc1`, for which the GI50 in the experiment on HOP-62 NSCLC is 0.23 µM; in the experiment on T-47D breast it was 0.0419 µM; in the experiment with M14 melanoma it was 0.233 µM; with HS 578T breast, 0.0503 µM; with UACC-257 melanoma, 0.184 µM; in the experiment on SR leukemia it was 0.239 µM. Further, the TGI was 4.38 µM in the experiment on HOP-62 NSCLC; 0.341 µM with T-47D breast; 0.303 µM in the experiment with HS 578T breast; 1.4 µM in the experiment on UACC-257 melanoma; above 19.8 µM in the experiment on SR leukemia.
As for `O=C(Nc1ccc(OC(F)(F)F)cc1)c1sccc1NCc1ccnc2ccccc12`, the GI50 in the experiment on HOP-62 NSCLC was 9.55 µM; in the experiment with T-47D breast, 2.48 µM; with M14 melanoma, 2.74 µM; with HS 578T breast it was 3.39 µM; in the experiment with UACC-257 melanoma, 3.62 µM; with SR leukemia it was 4.25 µM. The TGI was above 100 µM with HOP-62 NSCLC; above 95.9 µM in the experiment on T-47D breast; 30.6 µM with M14 melanoma; 26 µM in the experiment on HS 578T breast; 52.5 µM in the experiment with UACC-257 melanoma; above 100 µM in the experiment on SR leukemia.
Consider `CCc1nc(N)nc(N)c1-c1ccc([N+](=O)[O-])c(NCc2ccccc2)c1`, for which the TGI is 28.9 µM with HOP-62 NSCLC; above 46.8 µM with T-47D breast; 39.9 µM in the experiment on M14 melanoma; 51.4 µM in the experiment on HS 578T breast; 30.9 µM with UACC-257 melanoma; 31.1 µM in the experiment on SR leukemia.
In the case of `CC[C@H](C)[C@H](NC(=O)c1cnccn1)C(=O)N(C)[C@H](C[C@@H](OC(C)=O)c1nc(C(=O)N[C@@H](Cc2ccccc2)C[C@H](C)C(=O)OC)cs1)C(C)C`, the GI50 was 1.88 µM with HOP-62 NSCLC; 2.48 µM in the experiment with T-47D breast; 0.81 µM in the experiment with M14 melanoma; 0.941 µM in the experiment on HS 578T breast; 5.21 µM in the experiment on UACC-257 melanoma; 0.048 µM in the experiment on SR leukemia. Further, the TGI in the experiment with HOP-62 NSCLC was above 33.3 µM; in the experiment on T-47D breast it was above 33.3 µM; in the experiment on M14 melanoma, 2.76 µM; in the experiment with HS 578T breast it was 10.6 µM; in the experiment on UACC-257 melanoma it was 22.1 µM; in the experiment with SR leukemia it was above 33.3 µM.
On to `NS(=O)(=O)c1ccc(N2Cc3cc(Cl)ccc3OC3=C2C(=O)N(CC2CCCCC2)C3=O)cc1`, for which the GI50 in the experiment on HOP-62 NSCLC is 1.73 µM; in the experiment with T-47D breast, 0.365 µM; with M14 melanoma, 1.25 µM; with HS 578T breast it was 2.01 µM; with UACC-257 melanoma, 1.54 µM; with SR leukemia it was 0.284 µM. In addition, the TGI with HOP-62 NSCLC is 3.39 µM; with T-47D breast, 1.86 µM; in the experiment with M14 melanoma it was 2.95 µM; in the experiment with HS 578T breast, 6.88 µM; with UACC-257 melanoma, 3 µM; in the experiment on SR leukemia, 0.839 µM.
For the molecule `COc1cc2cc(Oc3ccc(NC(=O)c4cccc(C(F)(F)F)c4)cc3)c(C)nc2cc1OC`, the GI50 was 21.6 µM in the experiment with HOP-62 NSCLC; 3.23 µM in the experiment on T-47D breast; 4.02 µM with M14 melanoma; 2.97 µM in the experiment on HS 578T breast; 5.41 µM with UACC-257 melanoma; 3.25 µM with SR leukemia. In addition, the TGI was above 100 µM with HOP-62 NSCLC; above 100 µM in the experiment with T-47D breast; above 100 µM in the experiment with M14 melanoma; 58.4 µM in the experiment on HS 578T breast; above 100 µM in the experiment with UACC-257 melanoma; above 100 µM in the experiment on SR leukemia.
As to `CN1CCCN(CCNc2nccc(-c3c(-c4cccc(O)c4)nc4sccn34)n2)S1(=O)=O`, the GI50 with HOP-62 NSCLC is 30.6 µM and 30.9 µM; with T-47D breast, 14.2 µM and 11.8 µM; with M14 melanoma, 0.17 µM and 0.128 µM; in the experiment with HS 578T breast, 7.08 µM and 3.04 µM; with UACC-257 melanoma it was 0.132 µM and 1.01 µM; in the experiment on SR leukemia, 4.57 µM and 2.85 µM. Moreover, the TGI with HOP-62 NSCLC is 75 µM and > 100 µM; in the experiment with T-47D breast it was 57.1 µM and > 88.7 µM; with M14 melanoma, 9.04 µM and 13.2 µM; with HS 578T breast, 75 µM and 26 µM; in the experiment on SR leukemia, 35.2 µM and 27.8 µM.
`CC(C)(C)OC(=O)NCC(C#N)CNC(=O)OC(C)(C)C`: the TGI in the experiment with HOP-62 NSCLC, with T-47D breast, with M14 melanoma, in the experiment with HS 578T breast, in the experiment on UACC-257 melanoma and with SR leukemia was above 100 µM throughout.
As for `CCOC(=O)c1c(NC(=O)c2ccc(C(C)C)cc2)sc2c(CN(C)C)c(O)ccc12`, the GI50 in the experiment on HOP-62 NSCLC is 2.2 µM; with T-47D breast, 2.01 µM; in the experiment with M14 melanoma, 1.77 µM; in the experiment on HS 578T breast it was 2.01 µM; in the experiment on UACC-257 melanoma, 2.12 µM; in the experiment on SR leukemia it was 2.09 µM. In addition, the TGI with HOP-62 NSCLC was determined as 5.89 µM; in the experiment on T-47D breast, 5.17 µM; in the experiment with M14 melanoma it was 3.48 µM; in the experiment on HS 578T breast, 4.37 µM; in the experiment on UACC-257 melanoma, 4.61 µM; with SR leukemia, 6.44 µM.
Consider `COc1cc(/C=C2\CN(C)CC3=C2Nc2nc(SC)[nH]c(=O)c2C3c2cc(OC)c(OC)c(OC)c2)cc(OC)c1OC` (stereo not given), for which the GI50 with HOP-62 NSCLC was 2.46 µM; with T-47D breast it was 3.69 µM; in the experiment with M14 melanoma, 2.98 µM; in the experiment on HS 578T breast, 8.88 µM; with UACC-257 melanoma, 2.24 µM; in the experiment on SR leukemia it was 1.48 µM. Also, the TGI in the experiment on HOP-62 NSCLC is 7.09 µM; with T-47D breast it was 22.6 µM; in the experiment on M14 melanoma, 9.44 µM; with HS 578T breast it was above 100 µM; in the experiment with UACC-257 melanoma it was 7.63 µM; in the experiment on SR leukemia it was above 100 µM.

(Values after PubChem BioAssay (NCI).)
